The series in a line: in vitro. The conditions noted are these: human, serum.

Regarding `CC(C)C[C@H](NC(=O)[C@H](C)NC(=O)[C@H](CC(C)C)NC(=O)[C@@H]1CCCN1C(=O)[C@H](CCC(N)=O)NC(=O)[C@H](CC(C)C)NC(=O)[C@H](CO)NC(=O)CNC(=O)[C@H](C)NC(=O)CNC(=O)[C@@H]1CCCN1C(=O)CNC(=O)CNC(=O)CNC(=O)[C@H](CC(C)C)NC(=O)[C@H](CCC(=O)O)NC(=O)[C@@H](NC(=O)[C@H](CCC(N)=O)NC(=O)CNC(=O)[C@@H](NC(=O)[C@H](CCC(N)=O)NC(=O)[C@H](CC(C)C)NC(=O)[C@H](CC(=O)O)NC(=O)[C@H](CCC(=O)O)NC(=O)[C@H](C)NC(=O)[C@@H](N)CCC(=O)O)C(C)C)C(C)C)C(=O)N[C@@H](CCC(=O)O)C(=O)NCC(=O)N[C@@H](CO)C(=O)N[C@@H](CC(C)C)C(=O)N[C@@H](CCC(N)=O)C(=O)O` [C-peptide], the metabolised at 48 h, 0.53 nmol/L amounted to 2.4% and the metabolised at 48 h, 2.88 nmol/L came to 6.3%.

Source of the values: paper PMC11904604, “MRM-based LC-MS method for accurate C-peptide quantitation” (Journal of Mass Spectrometry and Advances in the Clinical …, 2025).
